Test [1] has as its system CAPAN-1 (Pancreatic Carcinoma). The test can be described thus: Bliss excess, mean over the matrix (fraction); higher = more synergy. Put shortly:
(§1)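 Bliss excess equals the observed combination effect minus the expected value EA + EB − EA·EB, where EA and EB are the effects of each agent alone. Combination Emax is the second-highest inhibition within the matrix. Inhibition was scaled from CellTiter-Glo 2.0 luminescence, with 0 set by vehicle wells and 1 by blank wells, after 72 hours of two-drug dosing of cells plated in 1536-well plates.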

The test system of test [2] is K5 (Thyroid Gland Carcinoma). The test is described as above. Put shortly: as §1
Test [3] concerns MDA-MB-468 (Breast Carcinoma). The description is as above. In short, it runs like this:
as §1

The subject of the next test is NB14 (Neuroblastoma). The test is described as above. Put shortly: as §1
A further test has as its system NCI-H2461 (Mesothelioma). Described as above. In short, it runs like this:
as §1

For test [4], the system named is NCI-H747 (Colorectal Carcinoma). The test is described as above. In short, it runs like this:
as §1

The test system of test [5] is RH-18 (Rhabdomyosarcoma). The test is described as above. Put shortly: as §1
Test [6] relates to RPMI-6666 (Non-Cancerous). The test is described as above. In short, it runs like this: as §1
For another test, the system named is SH-4 (Melanoma). The description is as above. Put shortly:
as §1

Test [7] deals with SIMA (Neuroblastoma). The test is described as above. Put shortly:
as §1

Test [8] concerns RH-18 (Rhabdomyosarcoma). The test can be described thus: combination Emax (second highest fraction inhibited in the dose matrix, 72 h); higher = more inhibition; extreme values may be limits of the assay. Put shortly: as §1
Test [9] relates to SIMA (Neuroblastoma). The description is as above. Put shortly:
as §1

Regarding `CN(C)CCCOc1ccc(-c2ccc3ncc4c(c3c2)n(C2CCOCC2)c(=O)n4C)cn1` [AZD0156] + C=CCn1c(=O)c2cnc(Nc3ccc(N4CCN(C)CC4)cc3)nc2n1-c1cccc(C(C)(C)O)n1 [AZD1775] (first compound max 1 µM, partner max 1 µM), the Bliss excess is -0.0768 in test [1]; -0.0003 in test [2]; -0.0449 in test [3]; -0.0198 in the test on NB14 (Neuroblastoma); -0.0451 in the test on NCI-H2461 (Mesothelioma); -0.0309 in test [4]. Further, the Bliss excess in the test on RH-18 (Rhabdomyosarcoma) [5] is -0.0645; in test [6], -0.009; with SH-4 (Melanoma), -0.0219; in the test on SIMA (Neuroblastoma) [7] it was -0.006. Further, the entries for the “combination Emax” value with RH-18 (Rhabdomyosarcoma) [8] and with SIMA (Neuroblastoma) [9] were 0.337 and 0.873, respectively.

For `CN(C)CCCOc1ccc(-c2ccc3ncc4c(c3c2)n(C2CCOCC2)c(=O)n4C)cn1` [AZD0156] + CCN(CCO)CCCOc1ccc2c(Nc3cc(CC(=O)Nc4cccc(F)c4)[nH]n3)ncnc2c1 [AZD2811] (first compound max 1 µM, 7x7, partner max 1 µM), the Bliss excess in [1] is -0.0635; in test [2], -0.0334; in test [3] it was -0.0326; in the test on NB14 (Neuroblastoma) it was -0.0955; with NCI-H2461 (Mesothelioma), -0.0293; in test [4], -0.02. The Bliss excess in the test on RH-18 (Rhabdomyosarcoma) [5] is -0.0253; in test [6] it was 0.0312; in the test on SH-4 (Melanoma), -0.0328; in the test with SIMA (Neuroblastoma) [7], -0.0085. Further, the “combination Emax” value was found to be 0.136 in the test on RH-18 (Rhabdomyosarcoma) [8] and 0.131 in the test on SIMA (Neuroblastoma) [9].

Consider `Cc1cc2ncnn2cc1Nc1ncc2c(n1)n(C1CCOCC1)c(=O)n2C` [AZD7648] + C[C@@H]1COCCN1C2=NC(=NC(=C2)C3(CC3)[S@](=N)(=O)C)C4=C5C=CNC5=NC=C4 [AZD6738] (first compound max 10 µM, 7x7, partner max 10 µM), for which the Bliss excess in test [1] was 0.0322; in test [2], 0.0129; in [3], -0.0063; in the test with NB14 (Neuroblastoma), -0.0026; in the test with NCI-H2461 (Mesothelioma), -0.0188; in [4] it was 0.0005. Moreover, the Bliss excess with RH-18 (Rhabdomyosarcoma) [5] was 0.0727; in test [6], -0.0048; in the test with SH-4 (Melanoma) it was -0.0043; in the test on SIMA (Neuroblastoma) [7], 0.0326. In addition, the “combination Emax” value stood at 0.365 with RH-18 (Rhabdomyosarcoma) [8] and 0.904 with SIMA (Neuroblastoma) [9].

Consider `CCN(CCO)CCCOc1ccc2c(Nc3cc(CC(=O)Nc4cccc(F)c4)[nH]n3)ncnc2c1` [AZD2811] + C=CCn1c(=O)c2cnc(Nc3ccc(N4CCN(C)CC4)cc3)nc2n1-c1cccc(C(C)(C)O)n1 [AZD1775] (first compound max 1 µM, partner max 1 µM), for which the Bliss excess in test [1] is -0.0733; in test [2], -0.0062; in test [3], 0.0205; in the test on NB14 (Neuroblastoma), -0.0236; in the test with NCI-H2461 (Mesothelioma) it was -0.0679; in [4] it was -0.0538. In addition, the Bliss excess in the test with RH-18 (Rhabdomyosarcoma) [5] is -0.0471; in test [6], -0.0271; in the test with SH-4 (Melanoma) it was -0.0484; in the test on SIMA (Neuroblastoma) [7] it was -0.0113. In addition, the figures for the “combination Emax” value with RH-18 (Rhabdomyosarcoma) [8] and in the test on SIMA (Neuroblastoma) [9] were 0.245 and 0.855, respectively.

Consider `Cc1cc2ncnn2cc1Nc1ncc2c(n1)n(C1CCOCC1)c(=O)n2C` [AZD7648] + O=C(c1cc(Cc2n[nH]c(=O)c3ccccc23)ccc1F)N1CCN(C(=O)C2CC2)CC1 [Olaparib] (first compound max 10 µM, 7x7, partner max 10 µM), for which the Bliss excess is -0.1 in [1]; -0.0159 in test [2]; -0.0504 in test [3]; -0.0534 in the test on NB14 (Neuroblastoma); -0.0601 in the test on NCI-H2461 (Mesothelioma); -0.0465 in test [4]. The Bliss excess was -0.0417 in the test with RH-18 (Rhabdomyosarcoma) [5], -0.0545 in [6], -0.0401 in the test with SH-4 (Melanoma) and -0.02 in the test on SIMA (Neuroblastoma) [7]. Also, the “combination Emax” value in the test with RH-18 (Rhabdomyosarcoma) [8] came out at 0.182; in the test with SIMA (Neuroblastoma) [9], 0.192.

As to `CCc1c2c(nc3ccc(O)cc13)-c1cc3c(c(=O)n1C2)COC(=O)[C@]3(O)CC` [SN-38] + O=C(c1cc(Cc2n[nH]c(=O)c3ccccc23)ccc1F)N1CCN(C(=O)C2CC2)CC1 [Olaparib] (first compound max 0.3 µM, 7x7, partner max 10 µM), the Bliss excess in test [1] stood at 0.0168; in test [2] it was 0.0566; in test [3], 0.0941; in the test with NB14 (Neuroblastoma), 0.0063; with NCI-H2461 (Mesothelioma) it was 0.0234; in test [4], 0.0512. The Bliss excess in the test on RH-18 (Rhabdomyosarcoma) [5] is 0.0899; in test [6] it was 0.0394; in the test with SH-4 (Melanoma), 0.0956. In addition, the “combination Emax” value in the test with RH-18 (Rhabdomyosarcoma) [8] was found to be 0.76.

On to `CN(CCO)CC[C@H](CSc1ccccc1)Nc1ccc(S(=O)(=O)NC(=O)c2ccc(N3CCC([C@@H](O)c4ccccc4-c4ccc(Cl)cc4)CC3)cc2)cc1S(=O)(=O)C(F)(F)F` [AZD4320] + C=CCn1c(=O)c2cnc(Nc3ccc(N4CCN(C)CC4)cc3)nc2n1-c1cccc(C(C)(C)O)n1 [AZD1775] (first compound max 1 µM, partner max 1 µM), for which the Bliss excess was 0.0172 in test [1]; 0.0069 in [2]; 0.032 in [3]; 0.0415 in the test with NB14 (Neuroblastoma); 0.016 in the test on NCI-H2461 (Mesothelioma); -0.0238 in [4]. Also, the values for the Bliss excess (in test [6]; with SH-4 (Melanoma); in the test with SIMA (Neuroblastoma) [7]) were 0.0219, 0.0103 and -0.0156, respectively. For the same compound, the “combination Emax” value with SIMA (Neuroblastoma) [9] stood at 1.

Take `COc1cccc(OCCCN)c1-c1cc(Nc2cnc(C#N)cn2)n[nH]1` [Prexasertib] + CCc1c2c(nc3ccc(O)cc13)-c1cc3c(c(=O)n1C2)COC(=O)[C@]3(O)CC [SN-38] (first compound max 1 µM, 7x7, partner max 0.3 µM): the Bliss excess in test [1] was -0.0624; in [2], -0.0708; in test [3], -0.0015; in the test with NB14 (Neuroblastoma) it was 0.0073; with NCI-H2461 (Mesothelioma), -0.114; in [4] it was 0.0283. The Bliss excess in the test with RH-18 (Rhabdomyosarcoma) [5] was -0.0464; in test [6], -0.0554; in the test with SH-4 (Melanoma) it was -0.0831. In addition, the “combination Emax” value with RH-18 (Rhabdomyosarcoma) [8] amounted to 0.689.

As to `Cc1c2c(nn1C)CSCc1cc(n(C)n1)CSc1cc(c3ccccc3c1)OCCCc1c(C(=O)O)n(C)c3c-2c(Cl)ccc13` [AZD5991] + CN(C)CCCOc1ccc(-c2ccc3ncc4c(c3c2)n(C2CCOCC2)c(=O)n4C)cn1 [AZD0156] (first compound max 1 µM, 7x7, partner max 1 µM), the Bliss excess in [1] was -0.0229; in [2] it was -0.0277; in test [3] it was -0.0544; in the test on NB14 (Neuroblastoma), 0.0091; in the test with NCI-H2461 (Mesothelioma), 0.0373; in test [4], -0.0289. Besides, the Bliss excess in [6] is -0.0605; in the test with SH-4 (Melanoma) it was 0.0088; with SIMA (Neuroblastoma) [7], 0.0197. Also, the “combination Emax” value with SIMA (Neuroblastoma) [9] was determined as 0.398.

The values above are taken from the supplement of paper PMC11061612.
